# Experimental data from the SangsterLogP compilation.
# Assay: method code SF, from DOI: 10.1021/jf00073a025
row,SMILES,logP
1,CNC(=O)ON=C1SCOC1C (stereo in doubt),0.46
2,CNC(=O)ON=C1COCCS1 (stereo in doubt),-0
3,CNC(=O)O/N=C1/COCS1,0.06
4,CCCC1OCS/C1=N\OC(=O)NC (centres undefined),1.52
5,CNC(=O)O/N=C1/SCOC1(C)C,0.82
6,CNC(=O)O/N=C1/SC(C)OC1C (centres undefined),0.96
7,CNC(=O)O/N=C1/CSCS1,0.51
8,CNC(=O)O/N=C1\SCCSC1(C)C,1.51
9,CNC(=O)ON=C1SCSC1(C)C,1.31
10,CNC(=O)O/N=C1\SCOC1CCOC (centres undefined),0.51
11,CNC(=O)O/N=C1\SCOC1C(C)C (centres undefined),1.48
12,CNC(=O)ON=C1CSC(C)(C)S1,1.33
13,CNC(=O)ON=C1CSCCS1,0.49
14,CNC(=O)O/N=C1\SCSC1C (centres undefined),0.91
